Legend:
[1] = test system: Escherichia coli (ATCC 11229); assay: Antimicrobial effect of ClO2 compositions with/without heptanoic acid, E. coli; type: cell-based; conditions: no secondary antimicrobial fatty acid added
Method: (§1) This experiment was used to determine what affect the addition of a fatty acid, the secondary antimicrobial agent, had on the effectiveness of the compositions in killing E. Coli and S. Aureus. The secondary fatty acid used was heptanoic acid at a level of 1% in examples 1, 2 and 3. The comparative examples, A, B and C, contained no fatty acid.
(§2) Three compositions were prepared from each base solution. Sodium chlorite was added in amounts that were sufficient to form compositions having 200 ppm, 300 ppm and 400 ppm ClO2. Six compositions were prepared in all.
(§3) The compositions were then tested for the antimicrobial effect against Staphylococcus aureus and Escherichia coli. The inoculum numbers in CFU/mL were 1.1×10^7 (ATCC 6538) and 1.0×10^8 (ATCC 11229). The test temperature was 25° C. and the solution pH was 5.5. The following Table II illustrates the results obtained.

[2] = test system: Staphylococcus aureus (ATCC 6538); assay: Antimicrobial effect of ClO2 compositions with/without heptanoic acid, S. aureus; type: cell-based; conditions: no secondary antimicrobial fatty acid added
Method: as §1, §2, §3

[3] = test system: E. coli; assay: Effect of various acids on antimicrobial activity of the base solution (no chlorine dioxide), E. coli; type: cell-based, Escherichia coli; conditions: used alone at 1%
Method: (§4) The effect of various acids on the antimicrobial activity of the base solution was measured. No chlorine dioxide was added to the compositions. Acids were added to each sample at a concentration of 1%. Example 4 had 1% heptanoic acid and Comparative Example D had 1% lactic acid. Examples 5 and 6 utilized blends of acids. The antimicrobial activity of each was measured and compared in the following Table III.

[4] = test system: S. aureus; assay: Effect of various acids on antimicrobial activity of the base solution (no chlorine dioxide), S. aureus; type: cell-based, Staphylococcus aureus; conditions: used alone at 1%
Method: as §4

SMILES	concentration level of chlorine dioxide that provided an effective antimicrobial kill of E. Coli [1] [ppm]	concentration level of chlorine dioxide that provided an effective antimicrobial kill of S. Aureus [2] [ppm]	effect against the microbes (E. coli), in words [3]	effect against the microbes (S. aureus), in words [4]
[O][Cl+][O-] [chlorine dioxide]	300	300		
CC(O)C(=O)O (stereo not shown) [lactic acid]			does not have much of any effect	does not have much of any effect

From patent US6582734B1, “Antimicrobial composition useful for the treatment of bovine mastitis” (Ecolab Inc., priority 2000, dated 2003)
